Experimental data as given in PMC8452690, “Structural basis for small molecule targeting of Doublecortin Like Kinase 1 with DCLK1-IN-1” (Communications Biology, 2021).
Changes are numbered by the printed parent chain. Marks after values point to notes of the source that are not given here.

How the values were obtained:
DCLK1-FL1Δ D511N [1] = biological target: T1, DCLK1-FL1Δ D511N (Homo sapiens, UniProt O15075, D511N); assay: SPR binding to immobilised DCLK1-FL1Δ D511N (non-phosphorylated); settings: for Kd / kon, kinetic fitting: SPR; for kon, kinetic fitting: DCLK1 FL1Δ D511N; for koff: read-out: koff, kinetic fitting; for kon: read-out: kon (Fig. 5c)
T1 construct: DCLK1-FL1Δ (residues 50-686); 8XHis tag with TEV protease cleavage site (N); made in house; host or cells: Escherichia coli C41(DE3)
Procedure: (§1) SPR studies were carried out on a Biacore 2000 instrument (Cytivia). Proteins were immobilised at 25 °C using standard amine coupling to a CM5 chip (Cytivia) in immobilisation buffer consisting of 10 mM HEPES pH 7.4, 150 mM NaCl, 1 mM TCEP, 0.005% Tween P20, 1% (v/v) DMSO. To the active flow, cells were coupled either DCLK1-FL1Δ D511N or WT to a final density of approximately 7000 RU, followed by surface deactivation with 1 M ethanolamine. For each protein, coupling was performed at a concentration of 2 µM protein in 10 mM sodium acetate buffer pH 4.0, 1% (v/v) DMSO final, in the presence 10 µM of the moderate affinity compound FMF-03-149-01 (IC50 ~400 nM)[28] to help to stabilise the kinase domain during immobilsiation at low pH. A blank immobilisation was performed on the reference flow cell.
(§2) Binding experiments were performed at 18 °C in running buffer consisting of 20 mM HEPES, pH 7.4, 150 mM NaCl, 1 mM tris(2-carboxyethyl)phosphine (TCEP), 0.005% (v/v) Tween-P20, and 2% (v/v) DMSO. Compounds (10 mM stocks in 100% DMSO) were diluted in DMSO to 500 µM (DCLK1-NEG) or 25 µM (all other compounds) then in running buffer (without DMSO) to achieve the starting concentration with a final DMSO concentration of 2% (v/v). Samples were then serially titrated in running buffer containing 2% (v/v) DMSO to prepare each final concentration series (seven-point, three-fold serial dilution, 10 µM−13.7 nM for DCLK1-NEG, or 500−0.68 nM for all other compounds). Solutions were injected in multi-cycle format (in duplicate) without regeneration (contact time 80 s, flow rate 75 μL/min, dissociation time 600 s), with an extra wash (50% DMSO) after each injection.
(§3) Steady-state/kinetic binding data were fitted using the S200 BIAevaluation software (GE Healthcare). Sensorgrams from reference surfaces and blank injections were subtracted from the raw data (double-referencing), followed by solvent correction. Kinetic rate constants (kon and koff values) were obtained by fitting to 1:1 Langmuir binding model. Reported binding data represent mean ± SEM for three or four independent experiments. The dissociative half-life life (t1/2) for each inhibitor complex with DCLK1 was calculated from the fitted dissociation rate constant (koff), according to the equation 1 (t1/2 = ln(2)/koff.)

[2] = biological target: T2, DCLK1-KD (residues 372-649) (Homo sapiens, UniProt O15075); assay: Thermal shift stability assay, DCLK1-KD; format: binding; settings: compound titration 2.5 to 40 μM
T2 construct: the DCLK1 kinase domain (DCLK1-KD; residues 372-649) by carrying out thermal stability assays; 8XHis tag with TEV protease cleavage site (N); made in house; host or cells: Escherichia coli C41(DE3)
T2 sequence (O15075 372-649 isoform O15075-2): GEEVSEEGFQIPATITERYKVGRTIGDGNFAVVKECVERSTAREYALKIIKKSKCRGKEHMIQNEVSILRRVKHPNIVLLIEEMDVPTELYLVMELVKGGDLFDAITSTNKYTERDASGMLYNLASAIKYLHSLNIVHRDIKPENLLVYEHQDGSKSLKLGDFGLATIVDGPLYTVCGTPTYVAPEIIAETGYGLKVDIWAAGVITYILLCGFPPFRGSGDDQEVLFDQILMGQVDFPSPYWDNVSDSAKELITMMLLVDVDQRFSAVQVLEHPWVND
Procedure: (§4) DCLK1 proteins were diluted in 150 mM NaCl, 20 mM Tris pH 8.0, 1 mM DTT to […] final concentration and assayed with the appropriate concentration of inhibitor in a total reaction volume of 25 μL. SYPRO Orange (Molecular Probes) was used as a fluorescence probe and detected at 530 nm. The data shown are representative of two independent experiments.

DCLK1-FL1Δ WT = biological target: T3, DCLK1-FL1Δ WT (Homo sapiens, UniProt O15075); assay: SPR binding to immobilised DCLK1-FL1Δ WT (phosphorylated); settings: for Kd / kon, kinetic fitting: SPR, mean ± SEM; for Kd: 18 °C, DCLK1 FL1Δ WT immobilised; for kon, kinetic fitting: DCLK1 FL1Δ WT; for koff: read-out: koff, kinetic fitting
T3 sequence (O15075 50-686 isoform O15075-2): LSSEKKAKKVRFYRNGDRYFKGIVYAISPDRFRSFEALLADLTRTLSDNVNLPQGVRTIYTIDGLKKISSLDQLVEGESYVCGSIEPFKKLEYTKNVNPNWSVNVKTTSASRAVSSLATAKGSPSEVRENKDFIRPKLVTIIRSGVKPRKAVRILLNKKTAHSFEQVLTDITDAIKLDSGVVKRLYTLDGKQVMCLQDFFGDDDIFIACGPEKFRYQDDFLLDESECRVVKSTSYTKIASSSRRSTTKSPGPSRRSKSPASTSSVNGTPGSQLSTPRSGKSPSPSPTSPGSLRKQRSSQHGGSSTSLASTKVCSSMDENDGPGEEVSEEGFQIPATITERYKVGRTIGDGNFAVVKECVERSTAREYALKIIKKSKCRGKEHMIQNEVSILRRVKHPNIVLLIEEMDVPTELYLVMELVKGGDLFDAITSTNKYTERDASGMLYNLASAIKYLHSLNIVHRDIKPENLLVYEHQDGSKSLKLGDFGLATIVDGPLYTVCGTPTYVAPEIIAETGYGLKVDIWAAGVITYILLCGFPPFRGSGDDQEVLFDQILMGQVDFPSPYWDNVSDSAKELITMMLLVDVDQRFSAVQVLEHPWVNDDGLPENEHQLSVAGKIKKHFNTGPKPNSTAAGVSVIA
Procedure: as §1, §2, §3

DCLK1 = settings: N-ethyl substitution at R4; cited from earlier work
DCLK1-KD G532V = biological target: T4, DCLK1-KD G532V (Homo sapiens, UniProt O15075, G532V); assay: Thermal shift stability assay, DCLK1-KD G532V; format: binding; settings: XMD8-85 40 μM, versus DCLK1-KD WT
T4 construct: Truncated DCLK1 constructs, DCLK1-KD (residues 372-649); 8XHis tag with TEV protease cleavage site (N); made in house; host or cells: Escherichia coli C41(DE3)
T4 sequence (O15075 372-649 isoform O15075-2 G532V): T2 sequence (O15075 372-649 isoform O15075-2) with G161V
Procedure: as §4, with “Thermal shift stability assays were performed as described previously. DCLK1” for “DCLK1”

[3] = biological target: T5, DCLK1-FL1Δ D511N tubulin polymerisation (MAP function) (Homo sapiens, UniProt O15075, D511N); assay: Fluorescence-based Tubulin Polymerisation Assay with DCLK1-FL1Δ D511N; format: biochemical; settings: 80 μM, fluorescence (Fig. 5e)
T5 construct: DCLK1-FL1Δ (residues 50-686); 8XHis tag with TEV protease cleavage site (N); made in house; host or cells: Escherichia coli C41(DE3)
T5 sequence (O15075 50-686 isoform O15075-2 D511N): T3 sequence (O15075 50-686 isoform O15075-2) with D462N
Procedure: Tubulin polymerisation assay were performed using the Microtubule Polymerisation/Depolymerisation Fluorescence Kit (Cytoskeleton #BK011P) in accordance with the manufacturer’s instructions. DCLK1 (4 μΜ) was added to 50 μL tubulin reaction mix containing Buffer 1 (80 mM PIPES at pH 6.9, 2.0 mM MgCl2, 0.5 mM EGTA, 10 μM fluorescent reporter), guanosine triphosphate stock solution at 100 mM, and tubulin (10 mg/ml) stock solution, as described by the manufacturer. Paclitaxel, a control of tubulin polymerisation, was tested at 3 μM, and Νocodazole, a tubulin polymerisation inhibitor, was tested at 80 μΜ. DCLK1-IN-1 was tested at 20 and 40 μΜ with buffer alone as controls. Polymerisation leads to fluorescence enhancement due to incorporation of a fluorescence reporter into polymerising microtubules and was measured by excitation at 355 nm and emission at 460 nm. Readings were taken every 20 s on EnVision Multimode Plate Reader. Each condition was tested in duplicate with two independent batches of protein.

DCLK1-FL1Δ D511N [4] = biological target: T1, DCLK1-FL1Δ D511N; assay: Thermal shift stability assay, DCLK1-FL1Δ D511N; format: binding; settings: 40 μM
Procedure: as §4

[5] = biological target: T5, DCLK1-FL1Δ D511N tubulin polymerisation (MAP function); assay: Tubulin polymerisation and pelleting assay with DCLK1-FL1Δ D511N; format: biochemical; settings: 40 μM, pelleting / SDS-PAGE (Fig. 5d)
Procedure: Tubulin polymerisation assays were performed in buffer containing 80 mM PIPES at pH 6.9, 2.0 mM MgCl2, 0.5 mM EGTA, 2.5 mM β,γ-Methyleneguanosine 5’-triphosphate, and 10 μM tubulin and 5 μM DCLK1 for 1 h at 37 °C. For tubulin polymerisation in the presence of inhibitors, various concentrations of the inhibitors were first incubated with DCLK1 and allowed to stand on ice for 5 min before adding this mix to the tubulin polymerisation reaction. Following the tubulin polymerisation, the reaction mix was pelleted at 20,000 g for 20 min and the supernatant and the pellet fractions were run on a 12% SDS gel. The data shown are representative of two independent experiments.

[6] = KD, kinetic fitting (1:1 binding model), 18 °C, DCLK1 FL1Δ D511N immobilised, mean ± SEM
[7] = KD, steady state fitting, 18 °C, DCLK1 FL1Δ D511N immobilised, mean ± SEM
[8] = kinetic fitting (1:1 binding model)

T1 sequence (O15075 50-686 D511N): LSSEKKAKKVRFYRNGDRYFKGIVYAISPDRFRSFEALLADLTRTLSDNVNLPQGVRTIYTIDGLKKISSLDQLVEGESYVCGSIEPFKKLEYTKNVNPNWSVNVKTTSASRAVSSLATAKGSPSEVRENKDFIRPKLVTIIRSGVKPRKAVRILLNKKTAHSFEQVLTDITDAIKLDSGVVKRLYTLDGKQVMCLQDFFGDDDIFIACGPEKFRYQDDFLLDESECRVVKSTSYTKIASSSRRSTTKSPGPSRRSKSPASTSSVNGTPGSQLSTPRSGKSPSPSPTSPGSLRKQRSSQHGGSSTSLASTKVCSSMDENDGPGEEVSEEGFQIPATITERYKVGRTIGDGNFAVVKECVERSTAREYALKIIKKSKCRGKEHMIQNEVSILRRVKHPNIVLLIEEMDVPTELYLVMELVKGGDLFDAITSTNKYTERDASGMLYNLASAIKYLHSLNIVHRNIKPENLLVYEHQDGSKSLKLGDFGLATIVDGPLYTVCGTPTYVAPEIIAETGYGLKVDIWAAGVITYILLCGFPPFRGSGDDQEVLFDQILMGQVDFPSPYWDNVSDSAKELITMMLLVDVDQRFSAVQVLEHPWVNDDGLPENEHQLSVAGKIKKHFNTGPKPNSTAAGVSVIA

Kd (DCLK1-FL1Δ D511N [1]; KD (weak binding to DCLK1), top concentration 10 µM) | Kd (DCLK1-FL1Δ WT; steady state fitting) | Structure (SMILES) | binding by shift in melting temperature (ΔTm) [2] | enhanced potency on DCLK1 compared to XMD8-85 (DCLK1) | Kd (DCLK1-FL1Δ D511N [1]; [6]) | Kd (DCLK1-FL1Δ D511N [1]; [7]) | kon, kinetic fitting (DCLK1-FL1Δ D511N [1]; mean ± SEM) | koff (DCLK1-FL1Δ D511N [1]) | kon (DCLK1-FL1Δ D511N [1]) | Kd (DCLK1-FL1Δ WT; [8]) | kon, kinetic fitting (DCLK1-FL1Δ WT) | koff (DCLK1-FL1Δ WT) | effect of Gly532 to valine mutation on binding affinity (DCLK1-KD G532V) | effect on tubulin polymerisation [3] | binding to DCLK1 by thermal stability assay (DCLK1-FL1Δ D511N [4]) | effect on tubulin polymerisation [5]
> 10000 nM | > 10000 nM | COc1cc(N2CCN(C)CC2)ccc1Nc1ncc2c(n1)N(C)c1ccc(C)cc1C(=O)N2CC(F)(F)F [DCLK1-NEG] | severely reduced binding to DCLK1-KD | – | – | – | – | – | – | – | – | – | – | – | – | –
– | 28 ± 2 nM | CCN1C(=O)c2ccccc2N(C)c2nc(Nc3ccc(N4CCN(C)CC4)cc3OC)ncc21 [FMF-03-055-1] | – | 5 fold | 13 nM | 24 ± 1 nM | 11 ± 4 1/Ms (x 10^5) | 0.014 ± 0.006 s⁻¹ | 1.1e+06 ± 400000 M⁻¹ s⁻¹ | 12 ± 2 nM | 9.6 ± 0.6 1/Ms (x 10^5) | 0.011 ± 0.001 s⁻¹ | – | – | – | –
– | – | COC(=O)Nc1nc2ccc(C(=O)c3cccs3)cc2[nH]1 [nocodazole] | – | – | – | – | – | – | – | – | – | – | – | inhibits tubulin polymerisation | does not bind | inhibits tubulin polymerisation

Structure (SMILES) | Kd (DCLK1-FL1Δ D511N [1]; KD (weak binding to DCLK1), top concentration 10 µM) | Kd (DCLK1-FL1Δ WT; steady state fitting) | binding by shift in melting temperature (ΔTm) [2] | enhanced potency on DCLK1 compared to XMD8-85 (DCLK1) | Kd (DCLK1-FL1Δ D511N [1]; [6]) | Kd (DCLK1-FL1Δ D511N [1]; [7]) | kon, kinetic fitting (DCLK1-FL1Δ D511N [1]; mean ± SEM) | koff (DCLK1-FL1Δ D511N [1]) | kon (DCLK1-FL1Δ D511N [1]) | Kd (DCLK1-FL1Δ WT; [8]) | kon, kinetic fitting (DCLK1-FL1Δ WT) | koff (DCLK1-FL1Δ WT) | effect of Gly532 to valine mutation on binding affinity (DCLK1-KD G532V) | effect on tubulin polymerisation [3] | binding to DCLK1 by thermal stability assay (DCLK1-FL1Δ D511N [4]) | effect on tubulin polymerisation [5]
COc1cc(N2CCN(C)CC2)ccc1Nc1ncc2c(n1)N(C)c1ccccc1C(=O)N2C [XMD8-85] | – | 12 ± 2 nM | bind DCLK1-KD | – | 8 nM | 14 ± 1 nM | 12.8 ± 0.5 1/Ms (x 10^5) | 0.01 ± 0.001 s⁻¹ | 1.28e+06 ± 50000 M⁻¹ s⁻¹ | 7.5 ± 0.3 nM | 22 ± 2 1/Ms (x 10^5) | 0.016 ± 0.001 s⁻¹ | considerably reduces XMD8-85 binding affinity | – | – | –
